Consider 6 cell lines from the supplement of paper PMC10307832.

Common to all, as to assay: relative viability (nuclei count vs DMSO), 5 days (fraction); higher = more cells survive
Compound in test [1]: Cn1cc(-c2cnn3c(N)c(Br)c([C@@H]4CCCNC4)nc23)cn1
Summed up:
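Five library-drug doses, separated by factors of √10, were pinned into 1536-well plates holding lung cancer cell lines after an overnight stay at 37 °C. Cells were fixed, permeabilised and Hoechst-stained in one step after 5 days without medium change, then imaged at 4×. Viability compares treated-well with vehicle-well nuclei, counted in MetaXpress, as a median across plates. Passing plates had control CV below 25% and at least one doubling.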

Compound in test [2]: Cn1cc(-c2cnn3c(N)c(Br)c([C@@H]4CCCNC4)nc23)cn1 + CC(=O)Nc1cccc(-n2c(=O)n(C3CC3)c(=O)c3c(Nc4ccc(I)cc4F)n(C)c(=O)c(C)c32)c1 [Trametinib] (partner 0.02 µM)
The method in brief:
(§1)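 Relative viability divides the nuclei count in treated wells by that in vehicle wells. Lung cancer cell lines were seeded in 1536-well plates, dosed by pin tool the next day, and fixed and stained after 5 days in one step with final 0.05% Triton X-100, 1% formaldehyde and 1 ug/ml Hoechst. Dosing was a single drug or a fixed anchor-drug dose plus five library-drug doses (not always all listed) in √10 steps, and values are medians of duplicate plates imaged at 4×.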

Compound in test [3]: Cn1cc(-c2cnn3c(N)c(Br)c([C@@H]4CCCNC4)nc23)cn1 + Cc1cc(Nc2cc(N3CCN(C)CC3)nc(Sc3ccc(NC(=O)C4CC4)cc3)n2)n[nH]1 [Tozasertib] (partner 0.1 µM)
The method in brief:
as §1

Compound in test [4]: Cn1cc(-c2cnn3c(N)c(Br)c([C@@H]4CCCNC4)nc23)cn1 + NC(=O)Nc1cc(-c2cccc(F)c2)sc1C(=O)N[C@H]1CCCNC1 [AZD7762] (partner 0.2 µM)
Summed up:
as §1

Take NCI-H1651: the relative viability in test [1] (0.05 µM) is 1.01; in test [1] (0.1581 µM) it was 0.993; in test [1] (0.5 µM) it was 0.917; in test [1] (1.581 µM) it was 0.783; in test [1] (5 µM) it was 0.503; in test [2] (first compound 0.05 µM), 0.885. The relative viability came to 0.925 in test [2] (first compound 0.1581 µM); 0.88 in test [2] (first compound 0.5 µM); 0.857 in test [2] (first compound 1.581 µM); 0.461 in test [2] (first compound 5 µM); 0.586 in test [3] (first compound 0.05 µM); 0.721 in test [3] (first compound 0.1581 µM). For the same cell line, the relative viability in test [3] (first compound 0.5 µM) turned out to be 0.641; in test [3] (first compound 1.581 µM), 0.429; in test [3] (first compound 5 µM) it was 0.176; in test [4] (first compound 0.05 µM), 0.436; in test [4] (first compound 0.1581 µM) it was 0.407; in test [4] (first compound 0.5 µM), 0.387. The relative viability in test [4] (first compound 1.581 µM) came to 0.378; in test [4] (first compound 5 µM) it was 0.219.
As for NCI-H1734, the relative viability was determined as 0.916 in test [1] (0.05 µM); 1.1 in test [1] (0.1581 µM); 0.963 in test [1] (0.5 µM); 0.78 in test [1] (1.581 µM); 0.793 in test [1] (5 µM); 0.667 in test [2] (first compound 0.05 µM). The relative viability in test [2] (first compound 0.1581 µM) was determined as 0.802; in test [2] (first compound 0.5 µM), 0.665; in test [2] (first compound 1.581 µM), 0.658; in test [2] (first compound 5 µM), 0.576; in test [3] (first compound 0.05 µM), 0.214; in test [3] (first compound 0.1581 µM) it was 0.25. Further, the relative viability in test [3] (first compound 0.5 µM) was 0.284; in test [3] (first compound 1.581 µM), 0.213; in test [3] (first compound 5 µM), 0.211; in test [4] (first compound 0.05 µM), 0.531; in test [4] (first compound 0.1581 µM), 0.572; in test [4] (first compound 0.5 µM), 0.48. Moreover, the relative viability in test [4] (first compound 1.581 µM) amounted to 0.469; in test [4] (first compound 5 µM) it was 0.474.
For NCI-H3122, the relative viability in test [1] (0.05 µM) stood at 1.03; in test [1] (0.1581 µM), 1.03; in test [1] (0.5 µM), 1.03; in test [1] (1.581 µM), 1.06; in test [1] (5 µM) it was 1.1; in test [2] (first compound 0.05 µM) it was 0.267. The relative viability in test [2] (first compound 0.1581 µM) amounted to 0.236; in test [2] (first compound 0.5 µM) it was 0.212; in test [2] (first compound 1.581 µM), 0.223; in test [2] (first compound 5 µM), 0.257; in test [3] (first compound 0.05 µM) it was 0.508; in test [3] (first compound 0.1581 µM) it was 0.403. Further, the relative viability in test [3] (first compound 0.5 µM) was 0.401; in test [3] (first compound 1.581 µM), 0.283; in test [3] (first compound 5 µM) it was 0.329; in test [4] (first compound 0.05 µM) it was 0.981; in test [4] (first compound 0.1581 µM), 1.07; in test [4] (first compound 0.5 µM) it was 1. The relative viability in test [4] (first compound 1.581 µM) was 0.883; in test [4] (first compound 5 µM) it was 1.16.
As for CAL-12T, the relative viability amounted to 1.03 in test [1] (0.05 µM); 1.06 in test [1] (0.1581 µM); 1.08 in test [1] (0.5 µM); 0.68 in test [1] (1.581 µM); 0.265 in test [1] (5 µM); 0.288 in test [2] (first compound 0.05 µM). For the same cell line, the relative viability turned out to be 0.346 in test [2] (first compound 0.1581 µM); 0.315 in test [2] (first compound 0.5 µM); 0.33 in test [2] (first compound 1.581 µM); 0.278 in test [2] (first compound 5 µM); 0.38 in test [3] (first compound 0.05 µM); 0.326 in test [3] (first compound 0.1581 µM). The relative viability in test [3] (first compound 0.5 µM) is 0.255; in test [3] (first compound 1.581 µM), 0.174; in test [3] (first compound 5 µM), 0.113; in test [4] (first compound 0.05 µM), 0.541; in test [4] (first compound 0.1581 µM), 0.531; in test [4] (first compound 0.5 µM) it was 0.538. Besides, the relative viability in test [4] (first compound 1.581 µM) turned out to be 0.494; in test [4] (first compound 5 µM), 0.239.
On to HCC-78, for which the relative viability is 1 in test [1] (0.05 µM); 1.04 in test [1] (0.1581 µM); 1.09 in test [1] (0.5 µM); 0.957 in test [1] (1.581 µM); 0.749 in test [1] (5 µM); 0.822 in test [2] (first compound 0.05 µM). The relative viability was determined as 1.14 in test [2] (first compound 0.1581 µM); 0.834 in test [2] (first compound 0.5 µM); 0.844 in test [2] (first compound 1.581 µM); 0.674 in test [2] (first compound 5 µM); 0.456 in test [3] (first compound 0.1581 µM); 0.404 in test [3] (first compound 0.5 µM). Moreover, the relative viability stood at 0.407 in test [3] (first compound 1.581 µM); 0.279 in test [3] (first compound 5 µM); 0.515 in test [4] (first compound 0.05 µM); 0.647 in test [4] (first compound 0.1581 µM); 0.648 in test [4] (first compound 0.5 µM); 0.563 in test [4] (first compound 1.581 µM). Further, the relative viability in test [4] (first compound 5 µM) was determined as 0.386.
Consider NCI-H2085, for which the relative viability in test [1] (0.05 µM) came out at 0.996; in test [1] (0.1581 µM) it was 1.12; in test [1] (0.5 µM), 1.04; in test [1] (1.581 µM), 0.932; in test [1] (5 µM), 0.853; in test [2] (first compound 0.05 µM) it was 0.532. Also, the relative viability in test [2] (first compound 0.1581 µM) came out at 0.664; in test [2] (first compound 0.5 µM), 0.548; in test [2] (first compound 1.581 µM) it was 0.484; in test [2] (first compound 5 µM), 0.287; in test [3] (first compound 0.05 µM), 0.807; in test [3] (first compound 0.1581 µM) it was 0.928. Moreover, the relative viability in test [3] (first compound 0.5 µM) worked out at 0.866; in test [3] (first compound 1.581 µM) it was 0.811; in test [3] (first compound 5 µM), 0.736; in test [4] (first compound 0.05 µM), 0.964; in test [4] (first compound 0.1581 µM), 1.12; in test [4] (first compound 0.5 µM), 1.01. For the same cell line, the relative viability worked out at 0.765 in test [4] (first compound 1.581 µM) and 0.719 in test [4] (first compound 5 µM).
